The test system of one experiment is A. baumannii ATCC 19606. Briefly: microbe, parasite or virus in culture. The class given is cell-based. Conditions: Acinetobacter baumannii, ATCC19606, read-out: MIC, A. baumannii ATCC 19606.
The test system of a further experiment is P. aeruginosa CDC-0090. Briefly: microbe, parasite or virus in culture. Conditions: Pseudomonas aeruginosa, CDC0090, read-out: Minimum inhibitory concentration, P. aeruginosa CDC-0090. The class given is cell-based.
A further experiment concerns A. baumannii 1258916. Briefly: microbe, parasite or virus in culture. The class given is cell-based, Acinetobacter baumannii. As to conditions: Acinetobacter baumannii, 1258916, read-out: MIC, A. baumannii 1258916.
Another experiment has as its system P. aeruginosa CDC-0110. Briefly: microbe, parasite or virus in culture. The format is cell-based. As to conditions: Pseudomonas aeruginosa, CDC0110, read-out: Minimum inhibitory concentration, P. aeruginosa CDC-0110.
Experiment [1] concerns B. humptydooensis ATCC BAA-2767. Briefly: microbe, parasite or virus in culture. The format is cell-based. As to conditions: Burkholderia humptydooensis, ATCCBAA2767, read-out: Minimum inhibitory concentration (MIC), B. humptydooensis ATCC BAA-2767.
Another experiment concerns P. aeruginosa CDC-0095. Briefly: microbe, parasite or virus in culture. As to conditions: Pseudomonas aeruginosa, CDC0095, read-out: Minimum inhibitory concentration, P. aeruginosa CDC-0095. The class given is cell-based.
Another experiment has as its system P. aeruginosa ATCC 27853. Briefly: microbe, parasite or virus in culture. The class given is cell-based. Conditions: Pseudomonas aeruginosa, ATCC27853, read-out: Minimum inhibitory concentration, P. aeruginosa ATCC 27853.
In another experiment the test system is A. baumannii ATCC 17978. Description: microbe, parasite or virus in culture. The class given is cell-based. Conditions: Acinetobacter baumannii, ATCC17978, read-out: MIC, A. baumannii ATCC 17978.
Another experiment has as its system P. aeruginosa ATCC 35151. Briefly: microbe, parasite or virus in culture. The format is cell-based. Conditions: Pseudomonas aeruginosa, ATCC35151, read-out: Minimum inhibitory concentration, P. aeruginosa ATCC 35151.
The subject of a further experiment is A. baumannii CDC-0033. Description: microbe, parasite or virus in culture. The format is cell-based. As to conditions: Acinetobacter baumannii, CDC0033, read-out: MIC, A. baumannii CDC-0033.
The target of experiment [2] is T1, PBP3 from Acinetobacter baumannii (ATCC 19606) (Acinetobacter baumannii, UniProt A0ABX6CK25).
T1 sequence (A0ABX6CK25 64-610): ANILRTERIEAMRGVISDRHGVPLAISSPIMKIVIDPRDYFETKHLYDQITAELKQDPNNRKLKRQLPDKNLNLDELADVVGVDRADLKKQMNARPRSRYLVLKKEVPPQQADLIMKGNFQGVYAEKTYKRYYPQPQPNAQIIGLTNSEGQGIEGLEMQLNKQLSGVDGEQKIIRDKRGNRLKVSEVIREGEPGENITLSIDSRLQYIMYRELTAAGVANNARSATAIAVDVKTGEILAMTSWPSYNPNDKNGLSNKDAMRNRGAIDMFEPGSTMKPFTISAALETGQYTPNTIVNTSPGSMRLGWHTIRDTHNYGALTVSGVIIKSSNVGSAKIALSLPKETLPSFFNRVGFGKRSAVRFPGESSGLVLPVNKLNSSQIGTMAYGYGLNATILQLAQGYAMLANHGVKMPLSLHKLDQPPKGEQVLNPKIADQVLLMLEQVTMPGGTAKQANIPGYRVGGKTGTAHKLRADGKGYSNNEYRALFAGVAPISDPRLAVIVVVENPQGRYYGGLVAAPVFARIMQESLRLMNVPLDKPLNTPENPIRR
Briefly: Bocillin-FL fluorescence polarization competition binding, A. baumannii PBP3. Conditions: fluorescence polarization competition binding assay using Bocillin-FL; read-out: A. baumannii PBP3 Potency. The procedure, abridged: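 Purified PBPs pre-incubated with inhibitor (E. coli PBP3 1.5 μM, 30 min; P. aeruginosa PBP3 0.75 μM, A. baumannii PBP1a 1 μM and PBP3 0.2 μM, 15 min), then Bocillin-FL 0.1 μM (0.05 μM for PBP1a) added; FP read up to 60 min. EC50 = concentration halving bound Bocillin-FL.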
A general note: In fluorescence polarisation assays a small probe gives low polarisation when free and higher when bound to something large.

In brackets after ≈: the same amount, converted by molar mass. A value given as a limit tells only on which side of the number the result lay.

Consider `O=C(O)c1c(F)ccc2c1OB(O)[C@@H](NC(=O)[C@H](NC(=O)N1CCN(C3CCN(C(=O)Nc4ccc(F)c(O)c4)CC3)C1=O)c1cc(F)c(O)c(O)c1Cl)C2` (single isomer, unassigned) [Example 449], for which the MIC in the experiment with A. baumannii ATCC 19606 was less than 1 µg/mL; in the experiment on P. aeruginosa CDC-0090 it was less than 1 µg/mL; in the experiment with A. baumannii 1258916, less than 1 µg/mL; in the experiment on P. aeruginosa CDC-0110 it was less than 1 µg/mL; in experiment [1] it was 2 to 4 µg/mL (≈ 2.53 to 5.06 µM); in the experiment with P. aeruginosa CDC-0095, less than 1 µg/mL. In addition, the MIC in the experiment with P. aeruginosa ATCC 27853, with A. baumannii ATCC 17978, in the experiment on P. aeruginosa ATCC 35151 and in the experiment with A. baumannii CDC-0033 was less than 1 µg/mL each time. In experiment [2], the IC50 is less than 10 µM.
For the compound `O=C(O)c1c(F)ccc2c1OB(O)[C@@H](NC(=O)[C@H](NC(=O)N1CCN(C3CCN(C(=O)Nc4cc(O)cc(F)c4)CC3)C1=O)c1cc(F)c(O)c(O)c1Cl)C2` (single isomer, unassigned) [Example 450], the MIC in the experiment on A. baumannii ATCC 19606 is less than 1 µg/mL; in the experiment with P. aeruginosa CDC-0090, less than 1 µg/mL; in the experiment with A. baumannii 1258916, less than 1 µg/mL; in the experiment with P. aeruginosa CDC-0110, less than 1 µg/mL; in experiment [1] it was 8 to 16 µg/mL (≈ 10.1 to 20.2 µM); with P. aeruginosa CDC-0095, less than 1 µg/mL. The MIC with P. aeruginosa ATCC 27853, in the experiment with A. baumannii ATCC 17978, with P. aeruginosa ATCC 35151 and in the experiment with A. baumannii CDC-0033 was less than 1 µg/mL throughout. In addition, in experiment [2], the IC50 is less than 10 µM.
For `O=C(O)c1c(F)ccc2c1OB(O)[C@@H](NC(=O)[C@H](NC(=O)N1CCN(C3CCN(C(=O)Nc4cc(O)ccc4F)CC3)C1=O)c1cc(F)c(O)c(O)c1Cl)C2` (single isomer, unassigned) [Example 451], the MIC (in the experiment on A. baumannii ATCC 19606; with P. aeruginosa CDC-0090; with A. baumannii 1258916; in the experiment with P. aeruginosa CDC-0110; in experiment [1]; in the experiment on P. aeruginosa CDC-0095) was less than 1 µg/mL throughout. Further, the MIC with P. aeruginosa ATCC 27853, in the experiment on A. baumannii ATCC 17978, in the experiment on P. aeruginosa ATCC 35151 and in the experiment on A. baumannii CDC-0033 was less than 1 µg/mL throughout. For the same compound, in [2], the IC50 is less than 10 µM.
`O=C(O)c1c(F)ccc2c1OB(O)[C@@H](NC(=O)[C@H](NC(=O)N1CCN(C3CCN(C(=O)Nc4c(F)ccc(O)c4F)CC3)C1=O)c1cc(F)c(O)c(O)c1Cl)C2` (single isomer, unassigned) [Example 454]: the MIC was less than 1 µg/mL with A. baumannii ATCC 19606; 2 to 4 µg/mL (≈ 2.47 to 4.95 µM) in the experiment on P. aeruginosa CDC-0090; less than 1 µg/mL in the experiment on A. baumannii 1258916; less than 1 µg/mL in the experiment with P. aeruginosa CDC-0110; less than 1 µg/mL in experiment [1]; 2 to 4 µg/mL (≈ 2.47 to 4.95 µM) with P. aeruginosa CDC-0095. The MIC is 2 to 4 µg/mL (≈ 2.47 to 4.95 µM) with P. aeruginosa ATCC 27853, less than 1 µg/mL in the experiment on A. baumannii ATCC 17978, less than 1 µg/mL with P. aeruginosa ATCC 35151 and 2 to 4 µg/mL (≈ 2.47 to 4.95 µM) in the experiment on A. baumannii CDC-0033. In addition, in experiment [2], the IC50 is less than 10 µM.
Take `O=C(O)c1c(F)ccc2c1OB(O)[C@@H](NC(=O)[C@H](NC(=O)N1CCN(C3CCN(C(=O)Nc4c(F)ccc(O)c4Cl)CC3)C1=O)c1cc(F)c(O)c(O)c1Cl)C2` (single isomer, unassigned) [Example 455]: the MIC (in the experiment with A. baumannii ATCC 19606; in the experiment with P. aeruginosa CDC-0090; with A. baumannii 1258916; with P. aeruginosa CDC-0110; in experiment [1]; in the experiment on P. aeruginosa CDC-0095) was less than 1 µg/mL in each case. Besides, the MIC with P. aeruginosa ATCC 27853, in the experiment on A. baumannii ATCC 17978, in the experiment on P. aeruginosa ATCC 35151 and in the experiment on A. baumannii CDC-0033 was less than 1 µg/mL throughout. In addition, the IC50 in experiment [2] was less than 10 µM.
With `O=C(O)c1c(F)ccc2c1OB(O)[C@@H](NC(=O)[C@H](NC(=O)N1CCN(C3CCN(C(=O)c4ccc(O)cc4)CC3)C1=O)c1cc(F)c(O)c(O)c1Cl)C2` (single isomer, unassigned) [Example 463], the MIC (in the experiment on A. baumannii ATCC 19606; with P. aeruginosa CDC-0090; in the experiment on A. baumannii 1258916; with P. aeruginosa CDC-0110; in experiment [1]; in the experiment on P. aeruginosa CDC-0095) was less than 1 µg/mL each time. In addition, the MIC in the experiment with P. aeruginosa ATCC 27853, in the experiment with A. baumannii ATCC 17978, in the experiment with P. aeruginosa ATCC 35151 and with A. baumannii CDC-0033 was less than 1 µg/mL in each case. In addition, the IC50 in [2] is less than 10 µM.

The values above are taken from patent US20240270762A1, “PENICILLIN-BINDING PROTEIN INHIBITORS” (priority 2021, published 2024).
